Where only a bound is given, the exact number is not on record here.

These results are taken from US20190008961A1, “COMPOUNDS AND METHODS FOR INCREASING TUMOR INFILTRATION BY IMMUNE CELLS” (THE BROAD INSTITUTE, INC., priority 2016, published 2019).

For one data set, the system named is MSC cells. As to the kind of experiment: RSL3 toxicity in the presence of inhibitors of arachidonic acid metabolic enzymes. In kind it is cell-based. Conditions: for effect on toxicity of RSL3: increasing amounts of RSL3, FIG. 13; for RSL3 mediated cell death in MSCs with soluble epoxide hydrolase inhibitors: FIG. 14, TPPU 20 and 80 μM, AUDA and butyl-AUDA 80 μM. From the text: To investigate the role of RSL3's effects on MSC toxicity, MDA-MSC co-cultures were contacted by compounds that were known inhibitors of arachidonic acid metabolic enzymes.

The subject of the next data set is MSC-shGPX cells. As to the kind of experiment: Zileuton rescue of viability in GPX4 knockdown MSCs. Format: cell-based. Conditions: increasing Zileuton. The method, then:
In a knockdown GPX4 experiment in MSCs, increasing amounts of Zileuton were added to MSC-shLacZ cells as a control and to MSC-shGPX cells growing in 384-well plates and their viability was measured after 5 days of growth (see FIG. 15).

Data set [1] relates to MSCs and WI-38 fibroblasts. As to the kind of experiment: viability, Cell Titer Glo, 72 hours. Format: cell-based, human. As to the method:
Viability measurements were made to determine whether RSL3 is toxic to MDA cells, MSCs or both. Viability was assessed by seeding cells into 384-well opaque-bottom plates (Corning, Corning N.Y. catalog #3570) then treating them 24 hours later with varying concentrations of RSL3 (added using the pin-transfer instrument CyBi-Well Vario, Cybio, Woburn Mass.) for an additional period of 72 hours. Viable cells remaining after the treatment were quantified using the Cell Titer Glo reagent (Promega, Madison Wis. catalog #G7570) that measures cellular ATP content.
On the technique in general: Cellular ATP, detected with luciferase, serves as a proxy for viable cell number.

The next data set in a line: plasma stability, human. In kind it is in vitro ADME. As to the method:
(§1) Plasma Stability. Plasma stability was determined at 37° C. at 5 hours in both human and mouse plasma. Each compound was prepared in duplicate at 5 μM in plasma diluted 50/50 (v/v) with PBS pH 7.4 (0.95% acetonitrile, 0.05% DMSO). Compounds were incubated at 37° C. for 5 hours with a 350-rpm orbital shake with time points taken at 0 hours and 5 hours. Samples were analyzed by UPLC-MS (Waters, Milford, Mass.) with compounds detected by SIR detection on a single quadrupole mass spectrometer.

Data set [2] is described as follows: microsomal stability, mouse. In kind it is in vitro ADME. As to the method: (§2) Microsomal Stability. Microsomal stability was determined at 37° C. at 60 minutes in both human and mouse microsomes. Each compound was prepared in duplicate at 1 μM with 0.3 mg/mL microsomes in PBS pH 7.4 (1% DMSO). Compounds were incubated at 37° C. for 60 minutes with a 350-rpm orbital shake with time points taken at 0 minutes and 60 minutes. Samples were analyzed by UPLC-MS (Waters, Milford, Mass.) with compounds detected by SIR detection on a single quadrupole mass spectrometer.

Data set [3] is described as follows: plasma protein binding by equilibrium dialysis, human. Format: in vitro ADME. The conditions noted are these: 5 μM. The method, then:
Plasma Protein Binding. Plasma protein binding was determined by equilibrium dialysis using the Rapid Equilibrium Dialysis (RED) device (Pierce Biotechnology, Rockford, Ill.) for both human and mouse plasma. Each compound was prepared in duplicate at 5μM in plasma (0.95% acetonitrile, 0.05% DMSO) and added to one side of the membrane (200 μL) with PBS pH 7.4 added to the other side (350 μL). Compounds were incubated at 37° C. for 5 hours with a 350-rpm orbital shake. After incubation, samples were analyzed by UPLC-MS (Waters, Milford, Mass.) with compounds detected by SIR detection on a single quadrupole mass spectrometer.

Data set [4] in a line: microsomal stability, human. In kind it is in vitro ADME. The method, then: as §2
A further data set in a line: plasma stability, mouse. Format: in vitro ADME. The method, then:
as §1

In the case of `c1ccc2c(c1)SCc1c-2[nH]c2ccccc12` [PD146176], in the data set on MSC cells, the “effect on toxicity of RSL3” value was “lessened the toxicity of RSL3”.
For the compound `CC(c1cc2ccccc2s1)N(O)C(N)=O` (stereo not shown) [Zileuton], the “amount of MSC-shGPX cells that survived” value in the data set on MSC-shGPX cells (5 days of growth) is listed as “increased with higher amounts of Zileuton”. For the same compound, the “viability of control MSC-shLacZ cells” value in the data set with MSC-shGPX cells (FIG. 15) was “no effect”. Moreover, in the data set on MSC cells, the “rescue of stromal cells from death by GPX4 inhibition” value is reported as “rescued” and the “effect on toxicity of RSL3” value was “lessened the toxicity of RSL3”.
Regarding `COc1ccc2c(c1)c(CC(=O)O)c(C)n2C(=O)c1ccc(Cl)cc1` [Indomethacin], the “effect on toxicity of RSL3” value with MSC cells is listed as “little impact”.
As for `CC(C)c1ccc2c(c1)c(SC(C)(C)C)c(CC(C)(C)C(=O)O)n2Cc1ccc(Cl)cc1` [MK886], in the data set on MSC cells, the “effect on toxicity of RSL3” value is “lessened the toxicity of RSL3”.
On to `CCCCOC(=O)CCCCCCCCCCCNC(=O)NC12C[C@H]3C[C@@H](C1)C[C@@H](C2)C3` [butyl-AUDA], for which the “RSL3 mediated cell death in MSCs with soluble epoxide hydrolase inhibitors” value with MSC cells is reported as “increase in RSL3 mediated cell death”.
Turning to `CCCCS(=N)(=O)CCC(N)C(=O)O` (stereo not shown) [buthionine sulfoximine, S-n-butyl homocysteine sulfoximine], the “stromal cell death, potency relative to RSL3” value in data set [1] is “lower potencies than that of RSL3”.
In the case of `O=C(O)CCCCCCCCCCCNC(=O)NC12CC3CC(CC(C3)C1)C2` [AUDA], in the data set on MSC cells, the “RSL3 mediated cell death in MSCs with soluble epoxide hydrolase inhibitors” value is “increase in RSL3 mediated cell death”.
For `CCC(=O)N1CCC(NC(=O)Nc2ccc(OC(F)(F)F)cc2)CC1` [TPPU], in the data set on MSC cells, the “RSL3 mediated cell death in MSCs with soluble epoxide hydrolase inhibitors” value is “increase in RSL3 mediated cell death” and the “effect on toxicity of RSL3” value is “enhanced RSL3 effects”.
For the compound `COc1cccc2c1C(=O)c1c(O)c3c(c(O)c1C2=O)C[C@@](O)(C(=O)CO)C[C@@H]3O[C@H]1C[C@H](N)[C@H](O)[C@H](C)O1` [doxorubicin], in data set [1] (viability, FIG. 4B), the “sensitivity of MSCs and fibroblasts to the drug” value is given as “did not show enhanced sensitivity”.
As to `COc1ccc(N(C(=O)CCl)C(C(=O)NCCc2ccccc2)c2cccs2)cc1Cl` (stereo not shown) [ML162], the “stromal cell death, potency relative to RSL3” value in data set [1] is “lower potencies than that of RSL3”.
As to `CCOC(=O)c1ccc(NC2CCCCC2)c(N)c1` [ferrostatin], the “rescue of stromal cells from death by GPX4 inhibition” value with MSC cells is given as “rescued”.
With `COC(=O)c1ccc([C@@H]2c3[nH]c4ccccc4c3C[C@@H](C(=O)OC)N2C(=O)CCl)cc1` [RSL3], the “potency in inhibiting viability of stromal cells compared with MDA cancer cells or HUVEC endothelial cells” value in data set [1] (72 hours treatment) was greater than 10 fold. Also, the “Plasma Stability (5 h)” value in the data set “plasma stability, human” (Human, 37° C., 5 μM) is listed as 47%; in the data set “plasma stability, mouse” (Mouse, 37° C., 5 μM), less than 1%. In the data set “plasma stability, human” (human), the “stability in human plasma, in words” value was “modest stability”. For the same compound, the “Liver Microsome Stability (1 h)” value is given as less than 1% in data set [2] (Mouse, 1 μM, 0.3 mg/mL microsomes) and 32.7% in data set [4] (Human, 1 μM, 0.3 mg/mL microsomes). The “stability in murine liver microsomal assay, in words” value in data set [2] (murine) is listed as “little stability”. The “Plasma Binding Protein (5 h)” value in data set [3] is given as 98.2%. Besides, the “stability in human liver microsomal assay, in words” value in data set [4] (human) is on record as “modest stability”. Moreover, the “stability in murine plasma, in words” value in the data set “plasma stability, mouse” (murine) is “little stability”.
